Converted amounts (≈) assume the structure as drawn. Where a name gives a salt, the structure may show the parent alone. Read-outs that look alike come from different tables or passages of the source.
Tests used:
E. coli (ATCC 25922) = experiment: MIC determination, sensitization fold and FIC index on E. coli; format: cell-based; settings: for MIC of AB with MD-124: MD-124 concentration 5 μg/ml; for MIC: Escherichia coli; for Sensitization: compound up to 25 μM; for sensitization activity: compound at up to 10 μM
Protocol: (§1) Bacteria culture and MICs determination: Gram-negative bacteria were cultured in Mueller Hinton II cation-adjusted broth. Gram-positive bacteria were cultured in LB broth. Mycobacterium smegmatis was cultured in Middlebrook 7H9 Broth. MICs of antibiotics itself were determined by performing two-fold serial dilutions of antibiotics. MICs of antibiotics in the presence of bacterial sensitizers were determined by performing two-fold serial dilutions of antibiotics with or without a constant concentration of bacterial sensitizers. The MICs tests were performed on 96-well plates with a final volume of 200 μl Mueller Hinton II cation-adjusted broth in each well. Each well was inoculated with 5×10^5 CFU/ml bacteria and was incubated for 24 h at 37° C. with continuous shaking of 200 rpm. The bacterial density was then determined by OD600. Bacterial growth %=OD600 of antibiotic treatment group/OD600 of antibiotic non-treatment group. MICs was determined as the concentrations that inhibit more than 90% of bacteria growth.
(§2) Sensitization fold determination and FIC index calculations: Sensitization fold=MIC of antibiotic only/MIC of antibiotic with bacterial sensitizer. […] Since the MICs were determined by performing two-fold serial dilutions of antibiotic, so the sensitization fold can is the times of 2.
FIC index between compound a and b was calculated according to the formula below: […]
FIC≤0.5: Synergy; FIC between 0.5 and 1: Additive; FIC between 1 and […]: no interaction; FIC >4: antagonism.
(§3) Bacteria strains (as indicated in Table 5B) were cultured with rifampicin at various concentrations in the presence or absence of 10 μM of the indicated compound for 20 h at 37° C. The MIC, sensitization, cytotoxicity, and MIC on mycobacteria were tested according to methods described herein. […] The sensitization activities of compounds on MRSA were tested using rifampicin. The sensitization activities of compounds on E. coli were tested using rifampicin.

[1] = tested on: A. baumannii (ATCC 17978); experiment: MIC, sensitization fold and FIC index on A. baumannii; format: cell-based; settings: A. baumannii towards the antibiotic
[2] = Cytotoxicity on mammalian cells (CCK-8), NIH3T3; format: cell-based; settings: mouse, NIH3T3 cells, 3T3 cell line
Protocol: (§4) Cytotoxicity test of bacterial sensitizers on mammalian cells. Cell viability was assessed by using Cell Counting Kit-8 (CCK-8, Dojindo, Japan). HEK293 or NIH3T3 cells were seeded in a 96-well plate one day before the experiment to reach 80% confluency. Cells were then incubated with various concentration of bacterial sensitizers at 37° C. with 5% CO2 for 24 h, then 10 μL of CCK-8 solution was added to each well, and the plate was incubated for an additional at 37° C. 2 h with 5% CO2. The optical density at 450 nm was recorded by plate reader; and the results were calculated as a percentage of viability compared with the untreated control.

[3] = Cytotoxicity on mammalian cells (CCK-8), HEK293; format: cell-based; settings: human, HEK293 cells; HEK293 cell line; 24 h
Protocol: as §4

B. subtilis = experiment: MIC determination and sensitization fold on B. subtilis; format: cell-based; settings: B. subtilis; for Sensitization fold / Sensitization: erythromycin; for MIC: Bacillus subtilis, 24 h, compound alone, read-out: MIC; for Sensitization: compound up to 12 μM
MRSA (ATCC 33592) = experiment: MIC determination and sensitization fold on MRSA; format: cell-based, methicillin-resistant Staphylococcus aureus; settings: for Sensitization fold: rifampicin; for MIC: Staphylococcus aureus, 24 h
Protocol: Bacteria strains: E. coli (ATCC 25922), A. baumannii (ATCC 17978), K. pneumoniae (43816), S. maltophilia (ATCC 31559), S. typhimurium (ATCC 14028), C. werkmanii (ATCC 51114), S. aureus (ATCC 12600) and methicillin-resistant Staphylococcus aureus (MRSA, ATCC 33592) strains were purchased from ATCC. NR698 was provided.
as §1, §2, §3

[4] = tested on: NDM-1 expressing E. coli strain; experiment: microbe, parasite or virus in culture; format: cell-based
HEK293 cells = experiment: Cytotoxicity on mammalian cells (CCK-8), HEK293; format: cell-based; settings: HEK293 cell line; 24 h
Protocol: as §4

[5] = Cytotoxicity in H9c2 cells (CCK-8); format: cell-based; settings: rat, H9c2 cells; H9c2 cell line
Protocol: The cytotoxicity in H9c2 (ATCC®CRL-1446™) cells was also determined. The H9c2 cells were maintained in DMEM (Dulbecco's Modified Eagle's Medium) supplemented with 10% fetal bovine serum (MidSci; S01520HI) and 1% penicillin-streptomycin (Sigma-Aldrich; P4333) at 37° C. with 5% CO2. The H9c2 cells were seeded in 96-well plate one day before the experiment. Different concentrations of di-amidine compounds were added into the H9c2 cells. The cells were then incubated with the compounds for 24 hours at 37° C. with 5% CO2. The cell viability was tested by the CCK-8. Specifically, after 24 hour incubation, 10 μL CCK-8 was added to each well. After 3 hours incubation at 37° C., the absorbance at 450 nm was recorded by a plate reader.

[6] = E. coli towards the antibiotic, MD-124 5 μg/ml
[7] = ATCC25922, 24 h, E. coli (wild type), antibiotic alone, read-out: MIC of AB only
[8] = ATCC25922, 24 h, E. coli, compound alone, read-out: MIC
[9] = NDM-1 expressing E. coli towards the antibiotic

SMILES | Sensitization fold (E. coli (ATCC 25922); [6]) [fold] | MIC of AB with MD-124 (E. coli (ATCC 25922); E. coli) [µg/mL] | MIC (E. coli (ATCC 25922); [7]) [µg/mL] | Sensitization fold with 5 μg/ml MD-124 [1] [fold] | CC50 at 24 h [2] [µM] | CC50 at 24 h [3] [µM] | Sensitization (E. coli (ATCC 25922); E. coli, rifampicin) | MIC (E. coli (ATCC 25922); [8]) [µM] | MIC (B. subtilis) [µM] | other results
O=C(O)c1cn(C2CC2)c2cc(N3CCNCC3)c(F)cc2c1=O [Ciprofloxacin, reference compound] | 4 | 0.0125 | 0.05 | 4 |  |  |  |  |  | 
CC(C)NC(=N)c1ccc(OCc2cccc(COc3ccc(C(=N)NC(C)C)cc3)c2F)cc1 [MD-110, 1,3-Bis{(4-isopropylamidino)-phenoxymethyl}-2-fluorobenzene dihydrochloride] |  |  |  |  | > 100 | > 100 | No effect up to 25 μM. | 25 | 25 | Sensitization fold (B. subtilis; compound at 6 μM): No effect at 6 μM.; Sensitization fold (MRSA (ATCC 33592); MRSA, compound at 4 μM): 16-fold at 4 μM.
Cc1cc(CSc2ccc(C3=NCCN3)cc2)cc(CSc2ccc(C3=NCCN3)cc2)c1 [MD-118, 1,3-Bis {(4-(2-imidazolino))-thiophenoxymethyl}-5-methylbenzene dihydrochloride] |  |  |  |  | 12.5 | 25 | No effect up to 25 μM. | > 50 | > 25 | Sensitization fold (B. subtilis; compound at 3 μM): 4-fold at 3 μM; Sensitization fold (B. subtilis; compound at 6 μM): 16-fold at 6 μM,
C[C@@H](O)[C@H]1C(=O)N2C(C(=O)O)=C(S[C@@H]3CN[C@H](C(=O)N(C)C)C3)[C@H](C)[C@H]12 [Meropenem, reference compound] | 1 | 0.063 | 0.063 |  |  |  |  |  |  | MIC (E. coli (ATCC 25922); ATCC25922, antibiotic alone (Table 14), read-out: MIC on wild-type E.coli): 0.03 µg/mL; MIC ([4]; Escherichia coli, antibiotic alone (Table 14), read-out: MIC on NDM-1 over-expression E. coli): 12.5 µg/mL (≈ 32.6 µM); Sensitization fold with 5 μg/ml MD-124 [4, 9]: 2 fold
CC(C)NC(=N)c1ccc(OCc2cccc(COc3ccc(C(=N)NC(C)C)cc3F)c2F)c(F)c1 [MD-111, 1,3-Bis {(4-isopropylamidino-2-fluoro)-phenoxymethyl}-2-fluorobenzene dihydrochloride] |  |  |  |  | > 100 | > 100 | No effect up to 25 μM. | 50 | 25 | Sensitization (B. subtilis): No effect up to 12 μM.; Sensitization fold (MRSA (ATCC 33592); MRSA, compound at 6 μM): 8 -fold at 6 μM.; Sensitization fold (MRSA (ATCC 33592); MRSA, compound at 12 μM): 16-fold at 12 μM,; MIC (MRSA (ATCC 33592); MRSA, compound alone, read-out: MIC): 50 µM
COc1cc(Cc2cnc(N)nc2N)cc(OC)c1OC [Trimethoprim, reference compound] | 2 | 1.25 | 2.5 | 2 |  |  |  |  |  | 
Cc1cc(COc2ccc(C3=NCCCN3)cc2)cc(COc2ccc(C3=NCCCN3)cc2)c1 [MD-113, 2,2′-((((5-methyl-1,3-phenylene)bis(methylene))bis(oxy))bis(4,1-phenylene))bis(1,4,5,6-tetrahydropyrimidine) dihydrochloride] |  |  |  |  | > 100 | > 100 | No effect up to 25 μM. |  | 50 | MIC (E. coli (ATCC 25922); ATCC25922, 24 h): > 100 µM; sensitization activity (E. coli (ATCC 25922); rifampicin): no sensitization activity; Sensitization (B. subtilis): No effect up to 12 μM.; Sensitization fold (MRSA (ATCC 33592); MRSA, compound at 12 μM): 4-fold at 12 μM.; Sensitization fold (MRSA (ATCC 33592); MRSA, compound at 25 μM): 8-fold at 25 μM,; MIC (MRSA (ATCC 33592)): > 50 µM
CN(C)[C@@H]1C(O)=C(C(N)=O)C(=O)[C@@]2(O)C(O)=C3C(=O)c4c(O)cccc4[C@@](C)(O)[C@H]3C[C@@H]12 [Tetracycline, reference compound] | 2 | 0.6 | 1.2 | 2 |  |  |  |  |  | Sensitization fold with 5 μg/ml MD-124 [4]: 4 fold
CCOc1ccc2ccccc2c1C(=O)N[C@@H]1C(=O)N2[C@@H]1SC(C)(C)[C@@H]2C(=O)O [Nafcillin, reference compound] | >4 | 75 | > 300 | 2 |  |  |  |  |  | 
COc1cc(C(=N)N)ccc1OCc1cc(COc2ccc(C(=N)N)cc2OC)cc(C(C)(C)C)c1 [MD-114, 1,3-Bis {[4-amidino-2-methoxy)-phenoxymethyl]}-5-(tert-butyl)benzene dihydrochloride] |  |  |  |  | 50 |  |  | 100 | 25 | CC50 (HEK293 cells): 100 µM; Sensitization fold (E. coli (ATCC 25922); E. coli, rifampicin, compound at 12.5 μM): 8-fold at 12.5 μM; Sensitization fold (B. subtilis; compound at 12 μM): 8-fold at 12 μM
Cc1cc(COc2cccc(C(=N)N)c2)cc(COc2cccc(C(=N)N)c2)c1 [MD-116, 3,3′-(((5-methyl-1,3-phenylene)bis(methylene))bis(oxy))dibenzimidamide dihydrochloride] |  |  |  |  | > 100 | > 100 |  |  |  | Sensitization fold (E. coli (ATCC 25922); E. coli, rifampicin, compound at 25 μM): 8-fold at 25 μM; MIC (E. coli (ATCC 25922); ATCC25922, 24 h): 100 µM; Sensitization fold (B. subtilis; compound at 12 μM): 32-fold at 12 μM; Sensitization fold (MRSA (ATCC 33592); MRSA, compound at 12.5 μM): 4-fold at 12.5 μM.
Cc1cc(COc2ccc(C3=NCCN3)cc2)cc(COc2ccc(C3=NCCN3)cc2)c1 [MD-129, 1,3-Bis {(4-(2-imidazolino))-phenoxymethyl}-5-methylbenzene dihydrochloride] |  |  |  |  | 25 | 50 | No effect up to 25 μM | > 50 | > 50 | Sensitization fold (E. coli (ATCC 25922); 10 μM compound, rifampicin as the antibiotic (Table 6)): 1 fold; sensitization activity (E. coli (ATCC 25922); rifampicin): no sensitization activity; Sensitization fold (B. subtilis; compound at 12 μM): 4-fold at 12 μM; CC50 at 24 h [5]: 25 µM
CC1(C)S[C@@H]2[C@H](NC(=O)[C@H](N)c3ccccc3)C(=O)N2[C@H]1C(=O)O [Ampicillin] |  |  |  |  |  |  |  |  |  | MIC on wild-type E.coli (E. coli (ATCC 25922); antibiotic alone (Table 14)): 6 µg/mL; MIC of AB with 5 μg/ml MD-124 ([4]; NDM-1 expressing E. coli): 300 µg/mL; Sensitization fold with 5 μg/ml MD-124 [4, 9]: >1 fold; MFC of AB only ([4]; NDM-1 expressing E. coli, antibiotic alone): >300 µg/mL; MIC on NDM-1 over-expression E. coli ([4]; antibiotic alone (Table 14)): >300 µg/mL
NC[C@H]1O[C@H](O[C@H]2[C@H](O)[C@@H](O[C@H]3O[C@H](CO)[C@@H](O)[C@H](N)[C@H]3O)[C@H](N)C[C@@H]2N)[C@H](O)[C@@H](O)[C@@H]1O [Kanamycin] |  |  |  | 2 |  |  |  |  |  | 
